The source of these data is patent publication EP0812190B1 (priority 1993, dated 1995).

Where a name gives a salt, the structure may show the parent alone. Read-outs that look alike come from different tables or passages of the source.

Data set [1] relates to haloperidol-induced catalepsy.
Data set [2] deals with T1, MAO-B (Rattus norvegicus, UniProt P19643).
T1 sequence (P19643 1-520): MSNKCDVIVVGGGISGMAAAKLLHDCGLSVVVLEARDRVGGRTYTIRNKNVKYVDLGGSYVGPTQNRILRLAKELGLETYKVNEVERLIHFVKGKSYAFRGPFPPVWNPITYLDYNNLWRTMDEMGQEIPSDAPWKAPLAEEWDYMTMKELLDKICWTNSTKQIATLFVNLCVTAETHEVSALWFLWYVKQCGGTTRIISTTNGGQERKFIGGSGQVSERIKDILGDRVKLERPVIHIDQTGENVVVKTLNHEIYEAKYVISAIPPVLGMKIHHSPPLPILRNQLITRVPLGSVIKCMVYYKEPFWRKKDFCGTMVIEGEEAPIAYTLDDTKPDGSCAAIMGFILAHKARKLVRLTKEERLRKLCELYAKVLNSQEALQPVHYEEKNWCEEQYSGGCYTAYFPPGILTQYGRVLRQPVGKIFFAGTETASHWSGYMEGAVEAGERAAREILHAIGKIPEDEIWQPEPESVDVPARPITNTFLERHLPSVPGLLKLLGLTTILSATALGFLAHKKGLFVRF
The data set can be described thus: in vivo. Particulars: rat. The method, then:
Groups of three rats were used for each dose level of inhibitor, and MAO activity determined in brain and liver using the general technique described above. The amount of protein in each incubation was determined using the Folin-Lowry method, and enzyme activity calculated as nmol of substrate metabolized per hour of incubation for each mg of protein. Activity of MAO in tissues from animals treated with inhibitors was expressed as a percentage of the enzyme activity in a group of control animals administered vehicle (water for oral administration, 0.9% saline for ip injection) and killed as above.

The target in another data set is T2, MAO-A (Rattus norvegicus, UniProt P21396).
T2 sequence (P21396 1-526): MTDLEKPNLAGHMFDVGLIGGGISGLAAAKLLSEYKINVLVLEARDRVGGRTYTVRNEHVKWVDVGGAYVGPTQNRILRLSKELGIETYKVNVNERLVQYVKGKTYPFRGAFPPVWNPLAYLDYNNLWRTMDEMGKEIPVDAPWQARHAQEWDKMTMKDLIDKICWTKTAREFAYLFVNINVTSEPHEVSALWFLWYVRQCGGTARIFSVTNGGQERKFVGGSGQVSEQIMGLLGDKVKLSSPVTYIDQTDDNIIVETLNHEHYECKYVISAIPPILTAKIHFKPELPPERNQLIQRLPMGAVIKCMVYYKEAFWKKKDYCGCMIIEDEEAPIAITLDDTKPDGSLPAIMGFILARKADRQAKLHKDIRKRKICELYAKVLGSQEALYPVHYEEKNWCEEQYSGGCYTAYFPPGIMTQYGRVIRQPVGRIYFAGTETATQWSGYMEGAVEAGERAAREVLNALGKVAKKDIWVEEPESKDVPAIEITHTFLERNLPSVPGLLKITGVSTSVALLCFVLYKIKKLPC
The data set can be described thus: Inhibition of MAO activity in vivo, acute treatment, MAO-A. Also noted: MAO activity determined in brain and liver using the general technique described above; from tissue; host or cells: brain and liver of treated rats. Particulars: dose producing 50% inhibition, rat.

Data set [3] deals with heart rate, blood pressure, cardiovascular effects of tyramine. Particulars: cited from earlier work.
Data set [4] concerns the target T1, MAO-B. The data set is described as follows: Rat brain MAO inhibition by propargylamines (Table IA), MAO-B. In kind it is biochemical. Also noted: in a rat brain preparation of MAO; from tissue; host or cells: rat brain preparation. Particulars: ratio MAO-A / MAO-B for one epimer.
The test system of data set [5] is MPTP-induced striatal dopamine depletions. The data set can be described thus: Suppression of MPTP-induced dopaminergic toxicity (striatal DA and DOPAC). In kind it is in vivo, mice. Particulars: striatum; MPTP-HCl 30 mg/kg s.c. alone. The method, then: Brains were removed and corpora striata dissected on an ice-cold glass plate and frozen on dry ice. Striatal tissues were homogenized in 0.1 M perchloric acid, and deproteinized aliquots containing dihydroxybenzylamine as an internal standard were assayed for dopamine and its major metabolite 3,4-dihydroxy-phenylacetic acid (DOPAC) using HPLC with electrochemical detection.

A further data set deals with rabbit jejunum. The data set is described as follows: Tyramine potentiation in rabbit jejunum preparation.
The subject of data set [6] is NMDA-induced cell death of cerebellum cells. The data set can be described thus: cells. Particulars: Rattus norvegicus, 24 h. How it is done: Procedures: Cultures of mechanically dissociated neonatal rat cerebellum. […] The cerebella are then dissociated after 20-25 passages through a sterile 13 gauge, 10 cm long stainless steel needle attached to a 5 ml syringe with an inserted 45 µm pore size nylon sieve. The dissociated cells are centrifuged at 200g for 5 minutes, the supernatant discarded and the cells resuspended in enriched medium. The cell viability is determined by the trypan blue exclusion test. […] After 4 days in culture, the media are replaced with media containing the desired test compounds. Experiments are done in duplicate and repeated 2 or 3 times. […] Nerve cell survival is evaluated by phase contrast microscopy and trypan blue staining after 24 h.

The subject of data set [7] is α-MpT-induced hypokinesia. The data set can be described thus: Reversal of α-MpT-induced hypokinesia in rats. In kind it is in vivo. To be noted: α-MpT 100 mg/kg i.p. alone. The method, then:
The drug α-MpT is assumed to inhibit the formation of L-DOPA from tyrosine, and consequently the formation of dopamine itself. Lack of CNS dopamine is expressed as hypoactivity. Six month-old male Wistar rats (from Harlan Orkack, UK) were pretreated with saline, [R] […] Two hours later they received i.p. α-MpT at a dose of 100 mg/kg in 0.3-0.5 mL. Controls received saline. Following this, motor activity was recorded in a computerized activity cage for the duration of 10 hours. […] (+)PAI Mesylate at 2 mg/kg.

Data set [8] in a line: Comparative stability: visual inspection of color and form. In kind it is physicochemical. How it is done:
Comparative stability studies were carried out under sets of several accelerating conditions: I) heating at 80°C for 72, 96 or 144 hours; and II) reflux in isopropanol for 30 hours. The degradation products developed were measured by HPLC and confirmed by TLC. The results are presented in Table 9 with the relative retention time (relative to the PAI peak; RRT) as an area percentage relative to total integrated peak area.
The salts were submitted to visual inspection of color and form.

The nature of data set [9]: pH of 1% aqueous solution of PAI salts. The data set is classed as physicochemical.
Experimental: (§1) The melting range was measured with an automatic apparatus (Mettler FP 80) and thermo-gravimetric analysis was performed on a Mettler TA 3000 system at a rate of 10°C/min in the applicable range. […] The pH was measured in a 1% aqueous solution of the PAI salts.
Data set [10] can be described thus: Thermo-gravimetric analysis of PAI salts. The data set is classed as physicochemical. Particulars: 10°C/min.
Experimental: as §1
Where [11] appears, read: comparative animal tests versus (-)-deprenyl.

`C#CCNC1CCc2ccccc21` (racemic) [Rac PAI Mesylate, reference compound]: in data set [1] (5.0 mg/kg i.p., listed as Racemic PAI mesylate), the “Score+SE” value is “not active”.

As to `C#CCNC1CCc2ccccc21` (racemic) [Rac, N-propargyl-1-aminoindan, reference compound], the “IC-50 MAO-B P.O. BRAIN” value on MAO-B [2] (dose producing 50% inhibition, p.o., 2h) is 0.29 mg/kg. In addition, at MAO-B [2] (ip, 1 h, read-out: IC-50 MAO-B I.P. BRAIN), the ED50 came out at 0.22 mg/kg. Moreover, the ED50 on MAO-B [2] (ip, 1 h, read-out: IC-50 MAO-B I.P. LIVER) worked out at 0.11 mg/kg. Further, the ED50 on MAO-B [2] (po, 2 h, read-out: IC-50 MAO-B P.O. LIVER) came out at 0.09 mg/kg. Moreover, at MAO-A (i.p., 1h), the “IC-50 MAO-A I.P. BRAIN” value was found to be 2.5 mg/kg and the “IC-50 MAO-A I.P. LIVER” value is reported as 5 mg/kg. At MAO-A (p.o., 2h), the “IC-50 MAO-A P.O. BRAIN” value is above 5 mg/kg and the “IC-50 MAO-A P.O. LIVER” value is on record as above 5 mg/kg. Moreover, in data set [3] (setting [11]), the blood pressure result is on record as “does not increase blood pressure” and the tachycardia entry is reported as “no significant tachycardia”.

As for `C#CCNC1CCc2ccccc21` (racemic) [racemic PAI·HCl, Racemic N-propargyl-1-aminoindan hydrochloride], the “potentiation of the cardiovascular effects of tyramine” value in [3] (in vivo) is listed as “does not potentiate the cardiovascular effects of tyramine”.

As for `C#CCN(C)C1CCCc2ccccc21` (single isomer, unassigned) [2-MPAI +, N-Methyl-N-propargyl-1-aminotetralin], the “RELATIVE POTENCY A/B” value at MAO-B [4] stood at 8.8.

With `C#CCN(C)C1CCCc2ccccc21` (single isomer, unassigned) [2-MPAI -, N-Methyl-N-propargyl-1-aminotetralin], at MAO-B [4], the “RELATIVE POTENCY A/B” value amounted to 0.5.

Turning to `C#CCNC1CCCc2ccccc21` (stereo not drawn) [1-PAT R, N-propargyl-1-aminotetralin], the “RELATIVE POTENCY A/B” value on MAO-B [4] turned out to be 10.

Turning to `C#CCNC1CCCc2ccccc21` (stereo not drawn) [1-PAT S, N-propargyl-1-aminotetralin], the “RELATIVE POTENCY A/B” value at MAO-B [4] was found to be 76.

Regarding `O=C(CCCN1CCC(O)(c2ccc(Cl)cc2)CC1)c1ccc(F)cc1` [Haloperidol, reference compound], the “Score+SE” value in [1] (haloperidol 6mg/kg s.c. alone, 3 hours after) turned out to be 6.6±0.3; in data set [1] (haloperidol 6mg/kg s.c. alone, 3 hours after, listed as haloperidol), 6.6±0.03.

For the molecule `CN1CC=C(c2ccccc2)CC1` [MPTP, 1-Methyl-phenyl-1,2,3,6-tetrahydropyridine], in [5], the DA is reported as 53.1±6.2 ng/mg protein and the DOPAC is 3.2±0.3 ng/mg protein.

As for `NC[C@H](O)c1ccc(O)c(O)c1` [Norepiniphrine], in the data set with rabbit jejunum (0.002 µM), the Percent relaxation was 100%.

Consider `NCCCNCCCCNCCCN` [Spermine, reference compound], for which the inhibition at 0.01 µM in data set [6] (read-out: Percent Protection) was 65%. Moreover, the viability at 0.01 µM in [6] (read-out: Surviving Cells) was 75%.

Turning to `NCCc1ccc(O)cc1` [Tyramine], the Percent relaxation in the data set with rabbit jejunum (tyramine alone 40 µM) came out at 0%.

As to `CC(N)(Cc1ccc(O)cc1)C(=O)O` (stereo not drawn) [α-Mpt, α-methyl-p-tyrosine, reference compound], in data set [7], the “% of control” value came out at 51% and the “Score (total motor activity, 10 hours)” value was 8,108±810.

Regarding chloride, the appearance entry in [8] (80°C/72h) is given as “white powder”; in data set [8] (80°C/144h) it was “white powder”; in data set [8] (reflux in iPrOH/30h) it was “off white powder”.

The Solubility is the concentration that dissolves in the medium under given conditions. fumarate gave a Solubility (water) of 95 mg/mL. The pH in data set [9] was found to be 3.5. Also, the “%Wt. loss” value in data set [10] was found to be 0.2%.

Regarding maleate, the appearance result in [8] (80°C/72h) is “brown melted”; in [8] (80°C/96h), “brown”; in data set [8] (reflux in iPrOH/30h) it was “brown melted”. Also, the Solubility result (water) is on record as “NLT 1000 mg/ml”. In addition, the “%Wt. loss” value in [10] is recorded as 0.1%.

Consider phosphate, for which the appearance result in data set [8] (80°C/72h) is on record as “brownish powder”; in [8] (80°C/144h), “brown powder”; in data set [8] (reflux in iPrOH/30h), “brown powder”.

On to sulphate, for which the appearance entry in data set [8] (80°C/72h) is “off white powder”; in data set [8] (80°C/144h), “off white powder”; in data set [8] (reflux in iPrOH/30h) it was “brown powder”.

Take tartarate: in data set [9], the pH is 5.5. In addition, the “%Wt. loss” value in data set [10] is given as “LT 0.1%”.

On to tosylate, for which, under “saturated salt water solution”, the Solubility was 60 to 70 mg/mL. Further, the pH in data set [9] turned out to be 4.4. The “%Wt. loss” value in data set [10] was “LT 0.1%”.
